Series [1] is described as follows: Dissolution rate of lyophilized J1/sucrose in 5% glucose solution (Example 1). The series is classed as physicochemical. Particulars: lyophilized 0.1 mg J1 and 0.2 mg sucrose, 0.5 ml 5% glucose solution. As for the experimental part: The speed of dissolution of melphalan flufenamide hydrochloride (J1) by addition of sucrose to the freeze-drying process of J1 was tested. Sucrose is a formulation agent Generally Considered As Safe (GRAS) according to the FDA (US Food and Drug Administration).
A solution of J1 (5 mg) was made in tert-butanol:water 1:1 (5 ml). 100 μl of the solution was added to a vial containing 0.2 mg sucrose. The vial was covered with aluminium foil and frozen on dry ice-acetone. The vial consisted of 0.1 mg J1 and 0.2 mg sucrose. The vial with sample was thereafter freeze-dried overnight. Freeze-drying was performed on a Leybold Lyovac GT2 equipment.
A 5% glucose solution (100 ml) was prepared and the internal marker 3-methoxy-benzoic acid (0.8 mg/ml) was added to the solution.
0.5 ml of the glucose solution from step 2, was added to the freeze-dried vial with J1 sample from step 1. The vial was shaken at room temperature for 15 seconds and thereafter filtered and transferred to a glass vial for J1 concentration measurement, with HPLC. The amount of dissolved J1 was determined using HPLC and a calibration curve.

A short description of series [2]: Stability test of J1 solution (HPLC), Example 6. The series is classed as physicochemical. As for the experimental part: Stability of the solution containing J1 and tert-butanol:water, 1:1 (v/v), was tested. A solution comprising tert-butanol:water 1:1 (v/v) and J1 at a concentration of 1 mg/ml, was left at room temperature for 5 days.
Series [3] deals with tumors. Particulars: even at lower concentrations than melphalan; cited from earlier work.
The nature of series [4]: Stability of previous preparation in DMA in a glucose solution. To be noted: dissolved in DMA (dimethylacetamide) in a glucose solution. The series is classed as physicochemical. The text has this:
In previous preparations, melphalan flufenamide was obtained from synthesis as a white powder in crystalline form. This crystalline form can only be dissolved in highly acidic aqueous solutions, which for practical manufacturing purposes is impossible. […] Therefore, previously melphalan flufenamide was instead dissolved in DMA (dimethylacetamide) in a glucose solution. The preparation is feasible but is unstable: 7% degradation/h. Furthermore, dimerization occurs and the solution turns bright yellow. This preparation was, however, unreliable and the polymerization rate varied in an unacceptable manner.

Setting [5] is: tert-butanol:water 1:1 (v/v), 1 mg/ml, room temperature, 5 days.

Molecules are shown by their SMILES. Where a name gives a salt, the structure may show the parent alone.

Regarding `CCOC(=O)[C@H](Cc1ccc(F)cc1)NC(=O)[C@@H](N)Cc1ccc(N(CCCl)CCCl)cc1` [Sample J1, melphalanyl-L-p-fluorophenylalanine ethyl ester hydrochloride], in series [1] (room temperature), the “% of J1 dissolved in 15 seconds” value is given as “approximately 40%”. In series [1] (shaken at room temperature 15 seconds), the “concentration of J1 dissolved in the glucose solution during 15 seconds” value was 80 µg/mL. Further, the “degradation compared with tert-butanol:water solution” value in series [2] (J1 dissolved in an acidic ethanol-water solution) is “much more rapid”. In series [2] (setting [5]), the “amount of J1 by HPLC signal after 5 days” value was determined as 85.5% and the “decrease of J1 HPLC signal” value turned out to be 11.7%. The “amount of J1 by HPLC signal, initial” value in series [2] (tert-butanol:water 1:1 (v/v), 1 mg/ml, room temperature, start) is recorded as 97.2%.
For `CCOC(=O)[C@H](Cc1ccc(F)cc1)NC(=O)[C@@H](N)Cc1ccc(N(CCCl)CCCl)cc1` [melphalan flufenamide, melphalanyl-L-p-fluorophenylalanine ethyl ester], the “cell killing activity against tumors” value in series [3] is listed as “increased cell killing activity”. The molecule further displayed a degradation in series [4] of 7 % degradation/h.

(Values after patent US10285947B2, “Lyophilized preparations of melphalan flufenamide” (priority 2012, dated 2019).)
